Laboratory results from US10167315B2, “Peptoids and methods for treating Alzheimer's disease” (THE BOARD OF TRUSTEES OF THE UNIVERSITY OF ARKANSAS, priority 2015, dated 2019).
Where a SMILES comes first, the peptide text is derived from it. [ ]: non-standard residue; d: D form. N(1S-Me-propyl)Gly = CC[C@H](C)NCC(=O)O; Nspe = C[C@H](NCC(=O)O)c1ccccc1; Nphe = O=C(O)CNCc1ccccc1; NPrGly = CCCNCC(=O)O; Nlys = NCCCCNCC(=O)O

Columns and labels:
Aβ40 [1] = target: T1, Aβ40 (Homo sapiens, UniProt P05067); assay: Aβ40 aggregation assay monitored via ThT fluorescence; type: biochemical; details: 100 μM peptoid, 20 μM Aβ40 monomer; mean±SEM, n=7
T1 construct: purchased Anaspec, Inc
Description: (§1) Aβ40 was dissolved in cold 1,1,1,3,3-hexafluoro-2-propanol (HFIP) to create a 1 mM solution and was incubated on ice for 60 min. After incubation, the solution was aliquoted into individual silicon-coated vials, and HFIP was allowed to evaporate overnight at room temperature, resulting in a thin protein film that was stored with desiccant at −80° C. until use. Prior to experimentation, protein films were rehydrated with 5 mM NaOH on ice for 5 min, and then 40 mM Tris-HCl (pH 8.0) was added for 10 min on ice for a final concentration of 250 μM NaOH.
(§2) Aggregation assays were performed with 20 μM rehydrated Aβ40 in 40 mM Tris-HCl (pH 8.0) and 150 mM NaCl. Peptoids were dissolved in DMSO and added at 100 μM such that the final DMSO concentration was 5% (v/v). Assays were performed at 25° C. with agitation on an orbital shaker at 800 rpm.
To monitor aggregation using ThT, an aliquot of the aggregation reaction was taken at varying time points and combined with 12.5 μM ThT at a 5:1 molar ratio (ThT:Aβ). Samples were mixed for 8 s and then scanned with a Shimazdu RF-150 mini fluorometer (excitation at 440±10 nm and emission at 490±10 nm) using an average scan time of 4 s. ThT fluorescence with background (ThT alone) subtraction was normalized to the fluorescence detected at equilibrium within the control reaction, and results were plotted against time. […] The fold-change in the lag time was calculated as the ratio of the lag time observed in the presence of peptoid to that of the control. The equilibrium plateau was determined for both the control and peptoid reactions, and percent inhibition was calculated as the percentage decrease of the equilibrium plateau observed in the presence of peptoid relative to the control.

Aβ40 [2] = target: T1, Aβ40; assay: Aβ40 aggregation assay assessed by dot blot analysis with fibril specific OC antibody; type: biochemical; details: 100 μM peptoid, 20 μM Aβ40 monomer; for lag time extension (dot blot, OC antibody), FIG. 3 legend: mean±SEM, n=3
Description: as §1, §2
In parallel with ThT fluorescence, aggregation assays were also assessed by dot blot analysis. […] Membranes were washed three times with TBS-T and incubated with Aβ fibril specific OC antibody (1:5000 dilution) for 1 h at room temperature with gentle agitation. Membranes were again washed three times with TBS-T. Protein detection for bound OC antibody was performed by binding alkaline phosphatase-conjugated anti-rabbit IgG (1:3000 dilution) for 1 h at room temperature with gentle agitation. Dot blots were developed using nitro blue tetrazolium and 5-bromo-4-chloro-3-indolyl phosphate in TBS-T/MgCl2 until […]. The developing reaction was halted using a 10% acetic acid solution. Dot blots were immediately imaged using a Canon CanoScan 9000F (Tokyo, Japan). Images were analyzed with ImageJ software using the gel lane analysis tool. Dot density was normalized to the density detected at equilibrium for the control and plotted against time. The fold-change in lag time and percent inhibition were assessed as described for ThT fluorescence.

Aβ40 [3] = target: T1, Aβ40; assay: Transmission electron microscopy of Aβ40 aggregates; details: 100 μM peptoid, 20 μM Aβ40, 255 min; for overall number of Aβ40 aggregates (TEM): versus control
Description: Aggregation assays were performed with 20 μM rehydrated Aβ40 in 40 mM Tris-HCl (pH 8.0) and 150 mM NaCl. Peptoids were dissolved in DMSO and added at 100 μM such that the final DMSO concentration was 5% (v/v). Assays were performed at 25° C. with agitation on an orbital shaker at 800 rpm. Monomer aggregation reactions were gridded for transmission electron microscopy (TEM) at 255 min, a time by which the control reaction had reached plateau as observed by ThT fluorescence. A 3 μL sample was placed onto a wax substrate, and a 300 square mesh formvar-carbon supported nickel grid (Electron Microscopy Sciences, Hatfield, Pa.) was inverted onto the sample. After 1 min, the sample was wicked away from the bottom side of the grid using a piece of filter paper. A 3 μL sample of 2% uranyl acetate was then placed onto the wax substrate, and the grid was inverted onto the solution for a period of 45 s. Excess stain was wicked away with a piece of filter paper, and the grids were allowed to dry for a period of 24 h. Imaging was performed using a JEOL-1011 transmission electron microscope (JEOL Ltd., Tokyo, Japan) with an accelerating voltage of 110 kV. Blinded observation of samples with random selection of grid areas was implemented to reduce bias during imaging. Images are the representative of 3 repeated experiments and 3 random sections of the grids.

Aβ40 [4] = target: T1, Aβ40; assay: Nile Red spectroscopy, surface hydrophobicity of Aβ40 aggregates; details: 100 μM peptoid, 20 μM Aβ40, equilibrium plateau; n=3-4
Description: as §2
To monitor peptoid-induced changes in aggregate surface hydrophobicity, which are indicative of changes in aggregate conformation, an aliquot of the aggregation reaction was taken from the equilibrium plateau and combined with 200 μM Nile Red (Life Technologies, Carlsbad, Calif.) at a 10:1 molar ratio (Nile Red:Aβ). Samples were scanned using a PerkinElmer LS 45 Luminescence Spectrometer (excitation at 550 nm and emission from 580-700 nm), and the integrated area under the curve (IAUC) was calculated from 580-700 nm. The IAUC was blank (Nile Red, peptoid) subtracted and normalized to Nile Red measurements performed for the control reaction.

Aβ40 [5] = target: T1, Aβ40; details: cited from earlier work
Aβ40 [6] = target: T1, Aβ40; details: different Aβ lot; cited from earlier work

T1 sequence (P05067 672-711 limits assumed): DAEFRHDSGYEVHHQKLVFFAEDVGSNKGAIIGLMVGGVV

| Structure (SMILES) | Inhibition of Aβ40 aggregation (reduction in the ThT fluorescence plateau at equilibrium) (Aβ40 [1]) | decrease in fibrillar aggregates at equilibrium (dot blot, OC antibody) (Aβ40 [2]) | fold change in lag time versus the control (dot blot, OC antibody) (Aβ40 [2]) | lag time extension (dot blot, OC antibody), FIG. 3 legend (Aβ40 [2]) | morphology of Aβ40 aggregates formed in the presence of peptoid (TEM) (Aβ40 [3]) | overall number of Aβ40 aggregates (TEM) (Aβ40 [3]) | surface hydrophobicity of Aβ40 aggregates (Nile Red fluorescence IAUC 580-700 nm normalized to control) (Aβ40 [4]) | Inhibition of Aβ40 aggregation (ThT), previously reported value (Aβ40 [5]) | decrease in fibrillar aggregates (dot blot), previously published data (Aβ40 [6]) | fold change in lag time compared to the control (dot blot), previously published data (Aβ40 [6]) |
| --- | --- | --- | --- | --- | --- | --- | --- | --- | --- | --- |
| CC[C@H](C)N(CC(=O)N(CC(=O)N(CC(=O)N(CC(=O)N(CC(=O)N(CC(=O)N(CC(N)=O)[C@@H](C)c1ccccc1)[C@@H](C)c1ccccc1)[C@@H](C)CC)[C@@H](C)c1ccccc1)[C@@H](C)c1ccccc1)[C@@H](C)CC)C(=O)CNCCCCN [JPT1] (H-[Nlys][N(1S-Me-propyl)Gly][N(1S-Me-propyl)Gly][Nspe][Nspe][N(1S-Me-propyl)Gly][Nspe][Nspe]-NH2) | 83.1±4.8% | 46.0±11.4% | 2.7±0.8 fold | 2.67±0.83 times that of the control | small aggregates with no extensive branching | reduction in the overall number of aggregates | no significant change in Nile Red fluorescence | 81.2±4.4% | 63.7±9.2% | < 0.31 fold |
| CCCN(CC(=O)N(CCC)CC(=O)N(CC(=O)N(CC(=O)N(CCC)CC(=O)N(CC(=O)N(CC(N)=O)Cc1ccccc1)Cc1ccccc1)Cc1ccccc1)Cc1ccccc1)C(=O)CNCCCCN [JPT1a] (H-[Nlys][NPrGly][NPrGly][Nphe][Nphe][NPrGly][Nphe][Nphe]-NH2) | 85.6±4.8% | 72.6±4.5% | < 0.50 fold | < 0.42 times that of the control | circular, bird nest-like morphology | reduction in the overall number of aggregates | significantly increased surface hydrophobicity | – | – | – |
| CC[C@H](C)NCC(=O)N(CC(=O)N(CC(=O)N(CC(=O)N(CC(=O)N(CCCCN)CC(=O)N(CC(=O)N(CC(N)=O)[C@@H](C)c1ccccc1)[C@@H](C)CC)[C@@H](C)CC)[C@@H](C)c1ccccc1)[C@@H](C)c1ccccc1)[C@@H](C)c1ccccc1 [JPT1s] (H-[N(1S-Me-propyl)Gly][Nspe][Nspe][Nspe][N(1S-Me-propyl)Gly][Nlys][N(1S-Me-propyl)Gly][Nspe]-NH2) | 76.9±4.8% | 50.5±9.0% | 2.2±0.4 fold | 2.22±0.28 times that of the control | – | reduction in the overall number of aggregates | no significant change in Nile Red fluorescence | – | – | – |
